Structures are written as SMILES. ≈ marks a conversion by molar mass, not a printed value.

This test has as its system Mycobacterium tuberculosis. The experiment in a line: Antitubercular activity against Mycobacterium tuberculosis. The format is functional.
The term MIC denotes the lowest concentration that inhibits growth of the organism. On to `CN1C/C(=C\c2ccc(Cl)cc2Cl)C(=O)[C@]2(C1)[C@H](c1ccc(Cl)cc1Cl)[C@@H]1CSCN1[C@@]21C(=O)Nc2ccccc21`, for which the MIC stood at 4.7 µM (≈ 3.03 µg/mL).

As for `COc1ccc(/C=C2\CN(C)C[C@@]3(C2=O)[C@H](c2ccc(OC)cc2OC)[C@@H]2CSCN2[C@@]32C(=O)Nc3ccc([N+](=O)[O-])cc32)c(OC)c1`, the minimal inhibitory concentration (MIC) is 9.4 µM (≈ 6.32 µg/mL).

`CN1C/C(=C\c2ccc(Cl)cc2)C(=O)[C@]2(C1)[C@H](c1ccc(Cl)cc1)[C@@H]1CSCN1[C@@]21C(=O)Nc2ccccc21` gave an MIC of 5.4 µM (≈ 3.11 µg/mL). Against the preceding compound, the MIC is about 1.7-fold lower.

Compound `CN1C/C(=C\c2ccccc2Cl)C(=O)[C@]2(C1)[C@H](c1ccccc1Cl)[C@@H]1CSCN1[C@@]21C(=O)Nc2ccc([N+](=O)[O-])cc21` showed an MIC of 2.6 µM (≈ 1.62 µg/mL).

On to `CN1C/C(=C\c2ccccc2)C(=O)[C@]2(C1)[C@H](c1ccccc1)[C@@H]1CSCN1[C@@]21C(=O)Nc2ccccc21`, for which the MIC was determined as 49.2 µM (≈ 25 µg/mL).

`COc1ccc(/C=C2\CN(C)C[C@@]3(C2=O)[C@H](c2ccc(OC)cc2OC)[C@@H]2CSCN2[C@@]32C(=O)Nc3ccccc32)c(OC)c1` had a minimal inhibitory concentration (MIC) of 19.9 µM (≈ 12.5 µg/mL). This MIC is about 2.5-fold lower than that of the compound before.

In the case of `CN1C/C(=C\c2ccc(Br)cc2)C(=O)[C@]2(C1)[C@H](c1ccc(Br)cc1)[C@@H]1CSCN1[C@@]21C(=O)Nc2ccccc21`, the minimal inhibitory concentration (MIC) was 4.7 µM (≈ 3.13 µg/mL).

`COc1ccc(/C=C2\CN(C)C[C@@]3(C2=O)[C@H](c2ccc(OC)cc2OC)[C@@H]2CSCN2[C@@]32C(=O)Nc3ccc(Cl)cc32)c(OC)c1` returned an MIC of 18.9 µM (≈ 12.5 µg/mL).

For `CN1C/C(=C\c2ccc(Cl)cc2)C(=O)[C@]2(C1)[C@H](c1ccc(Cl)cc1)[C@@H]1CSCN1[C@@]21C(=O)Nc2ccc([N+](=O)[O-])cc21`, 1.3 µM (≈ 0.808 µg/mL) was the least that counted as inhibitory (MIC).

As to `CN1C/C(=C\c2ccccc2-c2cccs2)C(=O)[C@]2(C1)[C@H](c1ccccc1-c1cccs1)[C@@H]1CSCN1[C@@]21C(=O)Nc2ccc(Cl)cc21`, the minimum inhibitory concentration (MIC) stood at 11.4 µM (≈ 8.05 µg/mL).

On to `Cc1ccc(/C=C2\CN(C)C[C@@]3(C2=O)[C@H](c2ccc(C)cc2)[C@@H]2CSCN2[C@@]32C(=O)Nc3ccc(Cl)cc32)cc1`, for which the minimal inhibitory concentration (MIC) was 11 µM (≈ 6.27 µg/mL).

`COc1ccccc1/C=C1\CN(C)C[C@@]2(C1=O)[C@H](c1ccccc1OC)[C@@H]1CSCN1[C@@]21C(=O)Nc2ccc(Cl)cc21`: the MIC was 20.8 µM (≈ 12.5 µg/mL).

As for `CN1C/C(=C\c2ccccc2Cl)C(=O)[C@]2(C1)[C@H](c1ccccc1Cl)[C@@H]1CSCN1[C@@]21C(=O)Nc2ccc(Cl)cc21`, the MIC was determined as 5.1 µM (≈ 3.12 µg/mL). This MIC is about 4.1-fold lower than that of the compound before.

In turn, `CN1C/C(=C\c2ccccc2-c2cccs2)C(=O)[C@]2(C1)[C@H](c1ccccc1-c1cccs1)[C@@H]1CSCN1[C@@]21C(=O)Nc2ccc([N+](=O)[O-])cc21` returned an MIC of 5.5 µM (≈ 3.94 µg/mL).

Take `CN1C/C(=C\c2ccc(Cl)cc2Cl)C(=O)[C@]2(C1)[C@H](c1ccc(Cl)cc1Cl)[C@@H]1CSCN1[C@@]21C(=O)Nc2ccc(Cl)cc21`: the MIC was 1.2 µM (≈ 0.816 µg/mL).

For the compound `COc1ccc(/C=C2\CN(C)C[C@@]3(C2=O)[C@H](c2ccc(OC)cc2)[C@@H]2CSCN2[C@@]32C(=O)Nc3ccc([N+](=O)[O-])cc32)cc1`, 10.3 µM (≈ 6.31 µg/mL) was the least that counted as inhibitory (MIC).

As to `COc1ccc(/C=C2\CN(C)C[C@@]3(C2=O)[C@H](c2ccc(OC)cc2)[C@@H]2CSCN2[C@@]32C(=O)Nc3ccccc32)cc1`, inhibition of growth (MIC) required 22 µM (≈ 12.5 µg/mL).

Turning to `CN1C/C(=C\c2ccc(F)cc2)C(=O)[C@]2(C1)[C@H](c1ccc(F)cc1)[C@@H]1CSCN1[C@@]21C(=O)Nc2ccc(Cl)cc21`, the minimal inhibitory concentration (MIC) came out at 2.8 µM (≈ 1.62 µg/mL). Compared with the last compound, the MIC is about 7.9-fold lower.

As for `CN1C/C(=C\c2ccccc2)C(=O)[C@]2(C1)[C@H](c1ccccc1)[C@@H]1CSCN1[C@@]21C(=O)Nc2ccc([N+](=O)[O-])cc21`, it took 5.6 µM (≈ 3.09 µg/mL) to inhibit growth (MIC).

Consider `CN1C/C(=C\c2ccc(Br)cc2)C(=O)[C@]2(C1)[C@H](c1ccc(Br)cc1)[C@@H]1CSCN1[C@@]21C(=O)Nc2ccc(Cl)cc21`, for which inhibition of growth (MIC) required 4.4 µM (≈ 3.08 µg/mL).

Take `CO[C@H]1/C=C/O[C@@]2(C)Oc3c(C)c(O)c4c(O)c(c(/C=N/N5CCN(C)CC5)c(O)c4c3C2=O)NC(=O)/C(C)=C\C=C\[C@H](C)[C@H](O)[C@@H](C)[C@@H](O)[C@@H](C)[C@H](OC(C)=O)[C@@H]1C` [RIFAMPIN]: the MIC came to 0.1 µM (≈ 0.0823 µg/mL).

Consider `CN1C/C(=C\c2ccc(Cl)cc2Cl)C(=O)[C@]2(C1)[C@H](c1ccc(Cl)cc1Cl)[C@@H]1CSCN1[C@@]21C(=O)Nc2ccc([N+](=O)[O-])cc21`, for which the lowest concentration to inhibit growth (MIC) was 0.6 µM (≈ 0.414 µg/mL).

In turn, `CN1C/C(=C\c2ccccc2Cl)C(=O)[C@]2(C1)[C@H](c1ccccc1Cl)[C@@H]1CSCN1[C@@]21C(=O)Nc2ccccc21` gave a minimum inhibitory concentration (MIC) of 10.9 µM (≈ 6.28 µg/mL). Compared with the last compound, the MIC is about 18-fold higher.

`CN1C/C(=C\c2ccc(F)cc2)C(=O)[C@]2(C1)[C@H](c1ccc(F)cc1)[C@@H]1CSCN1[C@@]21C(=O)Nc2ccccc21` yielded a minimum inhibitory concentration (MIC) of 5.7 µM (≈ 3.1 µg/mL).

Compound `CN1C/C(=C\c2ccccc2-c2cccs2)C(=O)[C@]2(C1)[C@H](c1ccccc1-c1cccs1)[C@@H]1CSCN1[C@@]21C(=O)Nc2ccccc21` had an MIC of 12.1 µM (≈ 8.13 µg/mL).

The compound `Cc1ccccc1/C=C1\CN(C)C[C@@]2(C1=O)[C@H](c1ccccc1C)[C@@H]1CSCN1[C@@]21C(=O)Nc2ccc(Cl)cc21` showed an MIC of 11 µM (≈ 6.27 µg/mL).

The compound `CN1C/C(=C\c2ccc(F)cc2)C(=O)[C@]2(C1)[C@H](c1ccc(F)cc1)[C@@H]1CSCN1[C@@]21C(=O)Nc2ccc([N+](=O)[O-])cc21` had a minimal inhibitory concentration (MIC) of 1.4 µM (≈ 0.824 µg/mL).

The compound `COc1ccc(/C=C2\CN(C)C[C@@]3(C2=O)[C@H](c2ccc(OC)cc2)[C@@H]2CSCN2[C@@]32C(=O)Nc3ccc(Cl)cc32)cc1` came in with an MIC of 20.8 µM (≈ 12.5 µg/mL).

Turning to `NNC(=O)c1ccncc1` [ISONIAZID], inhibition of growth (MIC) required 0.4 µM (≈ 0.0549 µg/mL).

Take `CN1C/C(=C\c2ccc(Cl)cc2)C(=O)[C@]2(C1)[C@H](c1ccc(Cl)cc1)[C@@H]1CSCN1[C@@]21C(=O)Nc2ccc(Cl)cc21`: the MIC came to 5.1 µM (≈ 3.12 µg/mL).

In turn, `NC(=O)c1cnccn1` [PYRAZINAMIDE] registered an MIC of 50.8 µM (≈ 6.25 µg/mL).

As to `Cc1ccccc1/C=C1\CN(C)C[C@@]2(C1=O)[C@H](c1ccccc1C)[C@@H]1CSCN1[C@@]21C(=O)Nc2ccc([N+](=O)[O-])cc21`, 5.3 µM (≈ 3.08 µg/mL) was the least that counted as inhibitory (MIC).

`COc1ccccc1/C=C1\CN(C)C[C@@]2(C1=O)[C@H](c1ccccc1OC)[C@@H]1CSCN1[C@@]21C(=O)Nc2ccccc21` yielded an MIC of 22 µM (≈ 12.5 µg/mL).

Turning to `CN1C/C(=C\c2ccccc2)C(=O)[C@]2(C1)[C@H](c1ccccc1)[C@@H]1CSCN1[C@@]21C(=O)Nc2ccc(Cl)cc21`, 23.1 µM (≈ 12.5 µg/mL) was the least that counted as inhibitory (MIC).

Regarding `CC(C)c1ccc(/C=C2\CN(C)C[C@@]3(C2=O)[C@H](c2ccc(C(C)C)cc2)[C@@H]2CSCN2[C@@]32C(=O)Nc3ccccc32)cc1`, it took 10.6 µM (≈ 6.27 µg/mL) to inhibit growth (MIC).

For `Cc1ccc(/C=C2\CN(C)C[C@@]3(C2=O)[C@H](c2ccc(C)cc2)[C@@H]2CSCN2[C@@]32C(=O)Nc3ccccc32)cc1`, the lowest concentration to inhibit growth (MIC) was 23.3 µM (≈ 12.5 µg/mL).

With `CC(C)c1ccc(/C=C2\CN(C)C[C@@]3(C2=O)[C@H](c2ccc(C(C)C)cc2)[C@@H]2CSCN2[C@@]32C(=O)Nc3ccc(Cl)cc32)cc1`, the minimal inhibitory concentration (MIC) is 10.1 µM (≈ 6.33 µg/mL).

As to `CC[C@@H](CO)NCCN[C@@H](CC)CO` [ETHAMBUTOL], the minimal inhibitory concentration (MIC) was determined as 7.6 µM (≈ 1.55 µg/mL).

`Cc1ccc(/C=C2\CN(C)C[C@@]3(C2=O)[C@H](c2ccc(C)cc2)[C@@H]2CSCN2[C@@]32C(=O)Nc3ccc([N+](=O)[O-])cc32)cc1`: the MIC came out at 5.3 µM (≈ 3.08 µg/mL).

The compound `CN1C/C(=C\c2ccc(Br)cc2)C(=O)[C@]2(C1)[C@H](c1ccc(Br)cc1)[C@@H]1CSCN1[C@@]21C(=O)Nc2ccc([N+](=O)[O-])cc21` registered an MIC of 1.1 µM (≈ 0.781 µg/mL).

`COc1ccccc1/C=C1\CN(C)C[C@@]2(C1=O)[C@H](c1ccccc1OC)[C@@H]1CSCN1[C@@]21C(=O)Nc2ccc([N+](=O)[O-])cc21` gave a minimal inhibitory concentration (MIC) of 5.1 µM (≈ 3.12 µg/mL).

For `Cc1ccccc1/C=C1\CN(C)C[C@@]2(C1=O)[C@H](c1ccccc1C)[C@@H]1CSCN1[C@@]21C(=O)Nc2ccccc21`, the MIC stood at 23.3 µM (≈ 12.5 µg/mL).

Source of the values: ChEMBL document CHEMBL1153107, “A highly atom economic, chemo-, regio- and stereoselective synthesis and evaluation of spiro-pyrrolothiazoles as antitubercular agents” (2010).
